Test results from ChEMBL document CHEMBL3779863, “Ionic liquid-promoted one-pot synthesis of thiazoleimidazo[2,1-b][1,3,4]thiadiazole hybrids and their antitubercular activity” (Medchemcomm, 2016).
Converted amounts (≈) assume the structure as drawn.

Columns and labels:
Escherichia coli = experiment: Antibacterial activity against Escherichia coli ATCC 25922 after 12 hrs by serial plate dilution method; assay type: functional; conditions: ATCC 25922, 12 h
Pseudomonas aeruginosa = experiment: Antibacterial activity against Pseudomonas aeruginosa ATCC 27853 after 12 hrs by serial plate dilution method; assay type: functional; conditions: ATCC 27853, 12 h
Staphylococcus aureus = experiment: Antibacterial activity against Staphylococcus aureus ATCC 25923 after 12 hrs by serial plate dilution method; assay type: functional; conditions: ATCC 25923, 12 h
[1] = Cytotoxicity against mouse NIH/3T3 cells assessed as cell growth inhibition at 50 ug/mL after 48 hrs by MTT assay; assay type: cell-based, NIH3T3; conditions: read-out: GI
[2] = system: Mycobacterium tuberculosis; experiment: Antimycobacterial activity against Mycobacterium tuberculosis H37Rv after 5 days by fluorescence analysis; assay type: functional; conditions: 120 h

Structure (SMILES): Cc1nn2c(/C=N/Nc3nc(-c4ccc(F)cc4)cs3)c(-c3ccc(Cl)cc3)nc2s1
- MIC (Escherichia coli): 25 µg/mL (≈ 53.3 µM)
- MIC (Pseudomonas aeruginosa): 50 µg/mL (≈ 107 µM)
- MIC (Staphylococcus aureus): 25 µg/mL (≈ 53.3 µM)

Structure (SMILES): Cc1ccc(-c2nc3sc(C)nn3c2/C=N/Nc2nc(-c3ccc(Cl)cc3)cs2)cc1
- MIC (Escherichia coli): 50 µg/mL (≈ 108 µM)
- MIC (Pseudomonas aeruginosa): 50 µg/mL (≈ 108 µM)
- MIC (Staphylococcus aureus): 50 µg/mL (≈ 108 µM)

Structure (SMILES): Cc1ccc(-c2csc(N/N=C/c3c(-c4ccc(C)cc4)nc4sc(C)nn34)n2)cc1
- MIC (Escherichia coli): 50 µg/mL (≈ 112 µM)
- MIC (Pseudomonas aeruginosa): 25 µg/mL (≈ 56.2 µM)
- MIC (Staphylococcus aureus): 50 µg/mL (≈ 112 µM)

Structure (SMILES): COc1ccc(-c2csc(N/N=C/c3c(-c4ccc(OC)cc4)nc4sc(C(F)(F)F)nn34)n2)cc1
- MIC (Escherichia coli): 12.5 µg/mL (≈ 23.6 µM)
- MIC (Pseudomonas aeruginosa): 25 µg/mL (≈ 47.1 µM)
- MIC (Staphylococcus aureus): 25 µg/mL (≈ 47.1 µM)

Structure (SMILES): COc1ccc(-c2csc(N/N=C/c3c(-c4ccc(C)cc4)nc4sc(C)nn34)n2)cc1
- MIC (Escherichia coli): 50 µg/mL (≈ 109 µM)
- MIC (Pseudomonas aeruginosa): 25 µg/mL (≈ 54.3 µM)
- MIC (Staphylococcus aureus): 50 µg/mL (≈ 109 µM)

Structure (SMILES): Fc1ccc(-c2csc(N/N=C/c3c(-c4ccc(Cl)cc4)nc4sc(C(F)(F)F)nn34)n2)cc1
- MIC (Escherichia coli): 6.25 µg/mL (≈ 12 µM)
- inhibition at 48 h, 50 ug/mL [1]: 15.9%
- MIC (Pseudomonas aeruginosa): 6.25 µg/mL (≈ 12 µM)
- MIC (Staphylococcus aureus): 12.5 µg/mL (≈ 23.9 µM)

Structure (SMILES): Cc1ccc(-c2csc(N/N=C/c3c(-c4ccc(Cl)cc4)nc4sc(C)nn34)n2)cc1
- MIC (Escherichia coli): 50 µg/mL (≈ 108 µM)
- MIC (Pseudomonas aeruginosa): 50 µg/mL (≈ 108 µM)
- MIC (Staphylococcus aureus): 50 µg/mL (≈ 108 µM)

Structure (SMILES): COc1ccc(-c2nc3sc(C(F)(F)F)nn3c2/C=N/Nc2nc(-c3ccc(C)cc3)cs2)cc1
- MIC (Escherichia coli): 25 µg/mL (≈ 48.6 µM)
- inhibition at 48 h, 50 ug/mL [1]: 18.4%
- MIC (Pseudomonas aeruginosa): 25 µg/mL (≈ 48.6 µM)
- MIC (Staphylococcus aureus): 50 µg/mL (≈ 97.2 µM)

Structure (SMILES): COc1ccc(-c2nc3sc(C(F)(F)F)nn3c2/C=N/Nc2nc(-c3ccc(F)cc3)cs2)cc1
- MIC (Escherichia coli): 50 µg/mL (≈ 96.4 µM)
- inhibition at 48 h, 50 ug/mL [1]: 18.9%
- MIC (Pseudomonas aeruginosa): 25 µg/mL (≈ 48.2 µM)
- MIC (Staphylococcus aureus): 50 µg/mL (≈ 96.4 µM)

Structure (SMILES): Cc1ccc(-c2nc3sc(C)nn3c2/C=N/Nc2nc(-c3ccc(F)cc3)cs2)cc1
- MIC (Escherichia coli): 50 µg/mL (≈ 111 µM)
- inhibition at 48 h, 50 ug/mL [1]: 22.3%
- MIC (Pseudomonas aeruginosa): 50 µg/mL (≈ 111 µM)
- MIC (Staphylococcus aureus): 50 µg/mL (≈ 111 µM)

Structure (SMILES): COc1ccc(-c2csc(N/N=C/c3ccc4c(c3)c3ccccc3n4C)n2)cc1OC
- MIC [2]: 21 µM (≈ 9.29 µg/mL)

Structure (SMILES): COc1ccc(-c2nc3sc(C)nn3c2/C=N/Nc2nc(-c3ccc([N+](=O)[O-])cc3)cs2)cc1
- MIC (Escherichia coli): 25 µg/mL (≈ 50.9 µM)
- MIC (Pseudomonas aeruginosa): 25 µg/mL (≈ 50.9 µM)
- MIC (Staphylococcus aureus): 25 µg/mL (≈ 50.9 µM)

Structure (SMILES): COc1ccc(-c2nc3sc(C)nn3c2/C=N/Nc2nc(-c3ccc(C)cc3)cs2)cc1
- MIC (Escherichia coli): 50 µg/mL (≈ 109 µM)
- MIC (Pseudomonas aeruginosa): 50 µg/mL (≈ 109 µM)
- MIC (Staphylococcus aureus): 50 µg/mL (≈ 109 µM)

Structure (SMILES): Cc1ccc(-c2nc3sc(C)nn3c2/C=N/Nc2nc(-c3ccc([N+](=O)[O-])cc3)cs2)cc1
- MIC (Escherichia coli): 6.25 µg/mL (≈ 13.1 µM)
- inhibition at 48 h, 50 ug/mL [1]: 23.3%
- MIC (Pseudomonas aeruginosa): 12.5 µg/mL (≈ 26.3 µM)
- MIC (Staphylococcus aureus): 12.5 µg/mL (≈ 26.3 µM)

Structure (SMILES): O=[N+]([O-])c1ccc(-c2csc(N/N=C/c3c(-c4ccc(Cl)cc4)nc4sc(C(F)(F)F)nn34)n2)cc1
- MIC (Escherichia coli): 12.5 µg/mL (≈ 22.7 µM)
- MIC (Pseudomonas aeruginosa): 25 µg/mL (≈ 45.5 µM)
- MIC (Staphylococcus aureus): 12.5 µg/mL (≈ 22.7 µM)

Structure (SMILES): COc1ccc(-c2csc(N/N=C/c3c(-c4ccc(OC)cc4)nc4sc(C)nn34)n2)cc1
- MIC (Escherichia coli): 12.5 µg/mL (≈ 26.2 µM)
- MIC (Pseudomonas aeruginosa): 50 µg/mL (≈ 105 µM)
- MIC (Staphylococcus aureus): 50 µg/mL (≈ 105 µM)

Structure (SMILES): COc1ccc(-c2nc3sc(C)nn3c2/C=N/Nc2nc(-c3ccc(F)cc3)cs2)cc1
- MIC (Escherichia coli): 50 µg/mL (≈ 108 µM)
- MIC (Pseudomonas aeruginosa): 50 µg/mL (≈ 108 µM)
- MIC (Staphylococcus aureus): 50 µg/mL (≈ 108 µM)

Structure (SMILES): COc1ccc(-c2csc(N/N=C/c3c(-c4ccc(Cl)cc4)nc4sc(C)nn34)n2)cc1
- MIC (Escherichia coli): 25 µg/mL (≈ 52 µM)
- inhibition at 48 h, 50 ug/mL [1]: 20.8%
- MIC (Pseudomonas aeruginosa): 50 µg/mL (≈ 104 µM)
- MIC (Staphylococcus aureus): 50 µg/mL (≈ 104 µM)

Structure (SMILES): FC(F)(F)c1nn2c(/C=N/Nc3nc(-c4ccc(Cl)cc4)cs3)c(-c3ccc(Cl)cc3)nc2s1
- MIC (Escherichia coli): 12.5 µg/mL (≈ 23.2 µM)
- MIC (Pseudomonas aeruginosa): 50 µg/mL (≈ 92.7 µM)
- MIC (Staphylococcus aureus): 12.5 µg/mL (≈ 23.2 µM)

Structure (SMILES): COc1ccc(-c2nc3sc(C(F)(F)F)nn3c2/C=N/Nc2nc(-c3ccc(Cl)cc3)cs2)cc1
- MIC (Escherichia coli): 50 µg/mL (≈ 93.5 µM)
- MIC (Pseudomonas aeruginosa): 50 µg/mL (≈ 93.5 µM)
- MIC (Staphylococcus aureus): 50 µg/mL (≈ 93.5 µM)

Structure (SMILES): Cc1nn2c(/C=N/Nc3nc(-c4ccc(Cl)cc4)cs3)c(-c3ccc(Cl)cc3)nc2s1
- MIC (Escherichia coli): 25 µg/mL (≈ 51.5 µM)
- MIC (Pseudomonas aeruginosa): 25 µg/mL (≈ 51.5 µM)
- MIC (Staphylococcus aureus): 25 µg/mL (≈ 51.5 µM)

Structure (SMILES): COc1ccc(-c2csc(N/N=C/c3c(-c4ccc(Cl)cc4)nc4sc(C(F)(F)F)nn34)n2)cc1
- MIC (Escherichia coli): 12.5 µg/mL (≈ 23.4 µM)
- inhibition at 48 h, 50 ug/mL [1]: 14.7%
- MIC (Pseudomonas aeruginosa): 25 µg/mL (≈ 46.7 µM)
- MIC (Staphylococcus aureus): 25 µg/mL (≈ 46.7 µM)

Structure (SMILES): Cc1ccc(-c2csc(N/N=C/c3c(-c4ccc(Cl)cc4)nc4sc(C(F)(F)F)nn34)n2)cc1
- MIC (Escherichia coli): 25 µg/mL (≈ 48.2 µM)
- inhibition at 48 h, 50 ug/mL [1]: 19.6%
- MIC (Pseudomonas aeruginosa): 25 µg/mL (≈ 48.2 µM)
- MIC (Staphylococcus aureus): 25 µg/mL (≈ 48.2 µM)

Structure (SMILES): COc1ccc(-c2nc3sc(C)nn3c2/C=N/Nc2nc(-c3ccc(Cl)cc3)cs2)cc1
- MIC (Escherichia coli): 6.25 µg/mL (≈ 13 µM)
- inhibition at 48 h, 50 ug/mL [1]: 12.7%
- MIC (Pseudomonas aeruginosa): 12.5 µg/mL (≈ 26 µM)
- MIC (Staphylococcus aureus): 12.5 µg/mL (≈ 26 µM)
